Source: patent US9873693B2 (Sunesis Pharmaceuticals, Inc., priority 2006, dated 2018)
Where two headings read alike, the source gives them in different places.

How the values were obtained:
Phospho-T308 Akt = Phospho-T308 Akt detection using immunoblot (western blot) in PC-3 cells; assay type: cell-based; conditions: for Reduction of Cellular Levels of Akt p308 By Western: 2 hour incubation, concentration not given in Table 2; for inhibition at 2 µM / inhibition at 5 µM: Homo sapiens, read-out: Percent Inhibition of phospho-Akt (308) By Western
Description: A Phospho-T308 Akt detection using immunoblot (western blot) analysis was performed as described below.
PC-3 prostate cells were plated in a 6 well plate in F12K media (Invitrogen, Carlsbad, Calif.) plus 10% FBS (Invitrogen) and placed in incubator overnight. The stock of compound A was a 50 mM solution in DMSO. 1000× dilutions of the compound were made in DMSO. The 1000× dilutions include, 35 mM, 25 mM, 15 mM, 10 mM, 7 mM, 5 mM, and 1 mM. 1 μl of the 1000× dilutions was added to 1 ml F12K media without serum for final concentrations of […]. 1 μl of DMSO was added to 1 ml media with no serum for a control. The 1 ml DMSO or compound plus media was then added to the cells. Following a 2 hour incubation at 37° C., cells were harvested and washed in PBS and subjected to centrifugation at 3,300 rpm for 5 minutes. Cells were lysed in 100 μl of Bio Rad Bioplex buffer containing protease inhibitors (BioRad, Hercules, Calif.) for 30 minutes on ice followed by centrifugation at 13,000 rpm for 5 minutes. The protein content of the supernatant was assayed using DC Protein Assay (BioRad). 25 μl of protein was added to 4× sample buffer (Invitrogen) and sample reducer (Invitrogen) and run on a 4-12% NuPage gel (Invitrogen). Proteins were then transferred to nitrocellulose (Invitrogen). The membrane was blocked in Tris-buffered saline (Sigma, St. Louis, Mo.) plus 0.1% Tween (Sigma) (T-TBS) plus 5% blotting grade milk (BioRad) for 60 minutes. Membranes were then incubated in T-TBS plus 5% BSA (Sigma) plus 1:1000 of anti-phospho akt (Thr 308) (Cell Signaling Technology, Beverly, Mass.) overnight at 4° C. Membranes were washed in T-TBS then incubated in 1:2000 of anti-rabbit-HRP (Cell Signaling) in TTBS plus 5% milk. Membranes were washed again and proteins were visualized with Super Signal West Pico (Pierce, Rockford, Ill.) and using Kodak BioMax MR film (Kodak, Rochester, N.Y.).
Phospho-akt 308 protein bands on the film were quantified using densitometry. An Alpha Imager (Alpha Innotech Corp, San Leandro, Calif.) using AlphaEase FC software version 4.1.0 (Alpha Innotech Corp.) was used to quantitate protein bands. Briefly, a rectangle of equal size was placed around each protein band as well as a background spot on the film. The densitometry values (IDV=Integrated Density Value) obtained for the background spot was then subtracted from the values obtained for the protein bands. These values were used to obtain an EC50 value using non-linear regression analysis in GraphPad Prism Version 4.00 (Graph Pad Prism, San Diego, Calif.). Percent decrease in expression of phosphoh-akt 308 were also measured specifically at 2 μM and 5 μM levels of inhibitor.

phosphorylated PDK1 = phosphorylated PDK1 (Homo sapiens (Human), UniProt O15530); assay: PDK1 kinase assay (coupled PDK1/AKT/FAM-crosstide, IMAP); assay type: biochemical; conditions: 0.5 nM phosphorylated PDK1, 24 μM ATP; read-out: Inhibition of phospo-PDK1 in vitro IC50
dephosphorylated PDK1 = dephosphorylated PDK1 (Homo sapiens (Human), UniProt O15530); assay: as above; assay type: biochemical; conditions: 25 nM un-phosphorylated PDK1, 24 μM ATP; read-out: Inhibition of dephospo-PDK1 in vitro IC50
Method in brief: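 Coupled cascade using 25 nM dephosphorylated PDK1 (aa 51–360, lambda-phosphatase treated, MS-verified), 30 nM unphosphorylated GST-AKT2 (aa 140–467)-PIFtide and 100 nM FAM-crosstide in Tris pH 7.2, 10 mM MgCl2, 1 mM DTT. ATP was 24 μM, with 30 min at 25 °C. Product was read by IMAP fluorescence polarization, and ΔmP against concentration was fitted with a 4-parameter model.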

phospho-akt (Thr308) = phospho-akt (Thr308) MSD ELISA in PC-3 cells; assay type: cell-based; conditions: Homo sapiens, PC-3 cells; for inhibition at 1 µM / inhibition at 10 µM: read-out: Percent Inhibition of phospho-Akt (308) By MSD ELISA; for EC50: PC-3, 2 h, 2 hours, no serum
Method in brief: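 PC-3 cells plated overnight in 10% FBS medium, then treated with three-fold serial compound dilutions in serum-free medium; DMSO-only wells as high control. Lysates captured on BSA-blocked MSD plates overnight at 4 degrees, detection antibody 1 hr RT, electrochemiluminescence read on MSD reader.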

[1] = read-out: Inhibition of P308 Akt in cells using MSD EC50
[2] = read-out: Reduction of Cellular Levels of Akt p308 By MSD ELISA (EC50 μM)

phosphorylated PDK1, sequence (O15530 51-360): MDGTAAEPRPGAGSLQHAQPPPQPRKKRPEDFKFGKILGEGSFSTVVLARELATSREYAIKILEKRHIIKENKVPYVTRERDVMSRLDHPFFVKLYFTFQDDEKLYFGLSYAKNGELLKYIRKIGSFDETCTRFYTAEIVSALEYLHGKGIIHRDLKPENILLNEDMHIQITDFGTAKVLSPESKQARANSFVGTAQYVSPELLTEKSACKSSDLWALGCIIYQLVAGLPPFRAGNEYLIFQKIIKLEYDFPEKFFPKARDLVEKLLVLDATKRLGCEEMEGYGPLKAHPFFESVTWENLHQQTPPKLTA
dephosphorylated PDK1, sequence (O15530 51-360): as above

Compound	Reduction of Cellular Levels of Akt p308 By Western (Phospho-T308 Akt)	IC50 (phosphorylated PDK1)	IC50 (dephosphorylated PDK1)	inhibition at 2 µM (Phospho-T308 Akt)	inhibition at 1 µM (phospho-akt (Thr308))	inhibition at 10 µM (phospho-akt (Thr308))	EC50 (phospho-akt (Thr308); [1])	EC50 (phospho-akt (Thr308); [2])	inhibition at 5 µM (Phospho-T308 Akt)
O=C(NCc1cccc(-c2ccc3nccn3c2)c1)c1cccn(Cc2ccc(F)c(F)c2)c1=O [Cpd 9]	bbb (inhibition of more than 75%)	< 500 nM	< 500 nM	–	–	–	–	–	–
O=C(NCc1ccc(-c2c[nH]c3nccnc23)s1)c1cccn(Cc2ccc(F)c(F)c2)c1=O [Cpd 14]	bb (inhibition of from 25% to 75%)	< 500 nM	< 500 nM	25 to 75%	25 to 75%	25 to 75%	–	–	–
O=C(NC1CCCc2ccc(-c3c[nH]c4ncccc34)cc21)c1cccn(Cc2ccc(F)c(F)c2)c1=O (centres unmarked) [Cpd 16]	bb (inhibition of from 25% to 75%)	< 500 nM	< 500 nM	< 25%	–	–	> 5 µM	> 5 µM	–
O=C(Nc1c(F)cccc1Oc1ccc2[nH]c(=O)[nH]c2c1)c1cccn(Cc2ccc(F)c(F)c2)c1=O [Cpd 133]	bbb (inhibition of more than 75%)	< 500 nM	< 500 nM	–	< 25%	25 to 75%	–	–	> 75%
O=C(NCc1cnc(-c2c[nH]c3ncccc23)s1)c1cccn(Cc2ccc(F)c(F)c2)c1=O [Cpd 134]	bbb (inhibition of more than 75%)	< 500 nM	< 500 nM	–	< 25%	> 75%	–	–	> 75%
COC(=O)[C@H](COc1ccc2[nH]c(=O)[nH]c2c1)NC(=O)c1cccn(Cc2ccc(F)c(F)c2)c1=O [Cpd 135]	bbb (inhibition of more than 75%)	< 500 nM	< 500 nM	–	–	–	1 to 5 µM	1 to 5 µM	> 75%
CNC(=O)C[C@@H](NC(=O)c1cccn(Cc2ccc(F)c(F)c2)c1=O)c1ncc(-c2c[nH]c3ncccc23)s1 [Cpd 137]	bbb (inhibition of more than 75%)	< 500 nM	< 500 nM	–	< 25%	> 75%	> 5 µM	–	> 75%
O=C(NCc1cccc(-c2ccc3n[nH]c(=O)n3c2)c1)c1cccn(Cc2ccc(F)c(F)c2)c1=O [Cpd 216]	bb (inhibition of from 25% to 75%)	500 to 10000 nM	< 500 nM	–	–	–	–	–	25 to 75%
O=C(NCc1cccc(-c2cn[nH]c2)c1)c1cccn(Cc2ccc(F)c(F)c2)c1=O [Cpd 222]	bb (inhibition of from 25% to 75%)	500 to 10000 nM	< 500 nM	–	–	–	–	> 5 µM	25 to 75%
O=C(NCc1cccc(-c2c[nH]c3ncc(CO)cc23)c1)c1cccn(Cc2ccc(F)c(F)c2)c1=O [Cpd 225]	bbb (inhibition of more than 75%)	–	< 500 nM	–	–	–	–	< 1 µM	> 75%
COC(=O)c1cc(-c2cccc(CNC(=O)c3cccn(Cc4ccc(F)c(F)c4)c3=O)c2)c[nH]1 [Cpd 230]	b (inhibition of less 25%)	< 500 nM	< 500 nM	–	25 to 75%	> 75%	–	–	< 25%
NC[C@@H](NC(=O)c1cccn(Cc2ccc(F)c(F)c2)c1=O)c1nnc(-c2c[nH]c3ncccc23)o1 [Cpd 283]	bb (inhibition of from 25% to 75%)	< 500 nM	< 500 nM	–	–	–	1 to 5 µM	1 to 5 µM	25 to 75%
CC(C)(C)OC(=O)C[C@@H](NC(=O)c1cccn(Cc2ccc(F)c(F)c2)c1=O)c1nnc(-c2c[nH]c3ncccc23)o1 [Cpd 286]	bbb (inhibition of more than 75%)	< 500 nM	< 500 nM	–	25 to 75%	> 75%	< 1 µM	–	> 75%
O=C(O)C[C@@H](NC(=O)c1cccn(Cc2ccc(F)c(F)c2)c1=O)c1nnc(-c2c[nH]c3ncccc23)o1 [Cpd 287]	bb (inhibition of from 25% to 75%)	< 500 nM	< 500 nM	–	< 25%	< 25%	–	–	25 to 75%
NC(=O)C[C@@H](NC(=O)c1cccn(Cc2ccc(F)c(F)c2)c1=O)c1nnc(-c2c[nH]c3ncccc23)o1 [Cpd 289]	b (inhibition of less 25%)	–	< 500 nM	–	< 25%	< 25%	–	–	< 25%
COC(=O)C[C@H](NC(=O)c1cccn(Cc2ccc(F)c(F)c2)c1=O)c1nnc(-c2c[nH]c3ncccc23)o1 [Cpd 291]	bbb (inhibition of more than 75%)	< 500 nM	–	–	25 to 75%	> 75%	< 1 µM	–	> 75%
O=C(NCc1noc(-c2c[nH]c3ncccc23)n1)c1cccn(Cc2cccc(Cl)c2)c1=O [Cpd 294]	bb (inhibition of from 25% to 75%)	< 500 nM	< 500 nM	–	–	–	–	–	25 to 75%
CNC(=O)C[C@@H](NC(=O)c1cccn(Cc2ccc(F)c(F)c2)c1=O)c1nnc(-c2c[nH]c3ncccc23)o1 [Cpd 299]	bb (inhibition of from 25% to 75%)	< 500 nM	–	–	< 25%	< 25%	–	–	25 to 75%
